Measured values taken from patent US20220193047A1, “METHODS OF ENHANCING RADIOTHERAPY USING FERROPTOSIS INDUCERS AS RADIOSENSITIZERS” (THE TRUSTEES OF COLUMBIA UNIVERSITY IN THE CITY OF NEW YORK, priority 2019, published 2022).
Entries after “also recorded” stand apart in the source; their conditions may differ.

How the values were obtained:
Assay type in all cases: cell-based
HT-1080 cells = test: Clonogenic assay with Cs-137 gamma radiation, HT-1080; conditions: for Highest observed coefficient of Drug Interaction (CDI) in combination with IR: HT-1080; for Enhancement of radiation effect on clonogenic survival: HT-1080, cell death inducer plus radiation; for CDI with 4 Gy IR / CDI with 2 Gy IR: HT-1080 cells, CDI<1 synergy; for CDI with 2 Gy IR: inducer concentration (300 nM IKE, 20 nM RSL3, 1 nM staurosporine, 2 nM doxorubicin, 300 nM rapamycin, 100 ng/mL TNF + 20 μM Z-VAD-FMK + 300 nM birinapant)
Procedure: 500 cells were seeded per well in 6-well plates in their respective growth media and incubated overnight. The next day, cells were co-treated with DMSO or compounds and radiation using a Gammacell 40 Caesium-137 irradiator (Theratronics). Plates were monitored every day using a light microscope for formation of colonies in the DMSO-treated wells. When colonies of >50 cells are clearly visible, the growth medium was discarded from all plates. The cells were washed with PBS, then fixed and stained with crystal violet solution (0.05% crystal violet, 1% formaldehyde, 1% methanol in PBS). Colonies were then directly visualized and counted.
We tested their ability to prevent clonogenic growth, along with DMSO-treated controls.
The coefficient of drug interaction (CDI), used to compute interaction between two drugs, was used to quantify synergy between cell death inducers and radiation according to the formula CDI=AB/(A×B), where AB is the surviving fraction of the combination treatment, and A and B are the surviving fractions of the individual treatments.

[1] = tested on: γH2AX foci in HT-1080 cells; test: γH2AX immunofluorescence staining; conditions: for Number of γH2AX foci: HT-1080, 30 minutes, 0 or 6 Gy, 10 μM IKE, 1 μM RSL3, 10 μM ferrostatin-1; for γH2AX foci formation, compound alone: HT-1080, 6 h, no radiation; for γH2AX foci in irradiated groups vs DMSO: HT-1080, 6 h post-treatment, 6 Gy
Procedure: 10,000 cells were seeded on cover slips placed inside wells of 6-well plates. The next day, cells were treated with ferroptosis modulators and/or radiation, then returned to the incubator for 30 minutes or 6 hours. After the growth medium was removed, the cells were washed with PBS and fixed with 100 μl 4% paraformaldehyde per well for 10 minutes at room temperature. After three washes with PBS, cells were permeabilized with 100 μl Triton X-100 (0.1% v/v) per well for 10 minutes incubation at room temperature. Non-specific protein binding was blocked with 100 μl of BSA (1% v/v) per well for 20 minutes at room temperature. After removing excess BSA, 100 μl of primary mouse monoclonal anti-phospho histone-H2AX antibody (1:500) was added to each well for a 1-hour incubation at room temperature. Cells were washed with PBS and incubated with 100 μl of secondary antibody per well for 45 minutes at room temperature in the dark. Cells were washed with PBS and mounted on slides with one drop of Prolong anti-fade reagent with DAPI (Invitrogen) per coverslip. Slides were stored at 4° C. in the dark before analysis on a Zeiss LSM 700 confocal microscope with constant laser intensity for all analyzed samples.
Mechanisms of the cellular lethality from radiation are thought to be mainly derived from the downstream caspase-dependent apoptosis induced by DNA damage, including complex double-strand DNA breaks (Lomax et al., 2013; Morgan and Lawrence, 2015). Therefore, it was desired to determine if ferroptosis inducers and radiation induce DNA damage or affect DNA repair. The extent of these effects of radiation was evaluated by measuring DNA damage and caspase activation in HT-1080 cells co-treated with radiation and ferroptosis inducers. […] The cells were either treated with radiation (6 Gy) or not irradiated (0 Gy) as a control.

[2] = tested on: percent tail DNA in HT-1080 cells; test: Comet assay; conditions: for DNA single strand damage (percent tail DNA), compound alone: HT-1080, 10 μM IKE or 1 μM RSL3, 30 minutes or 4 hours; for DNA damage (percent tail DNA), combined with radiation: HT-1080, 6 Gy, 30 minutes or 4 hours
Procedure: 100,000 HT-1080 cells were seeded per well in 6-well plates and incubated overnight. On the next day, the cells were treated with ferroptosis modulators and/or radiation, then returned to the incubator for 30 minutes or 4 hours before being harvested with trypsin and counted. The comet assay was performed using the CometAssay kit (Trevigen) following the alkaline comet assay product instructions. All images were captured on a Zeiss LSM 700 confocal microscope with constant laser intensity for all analyzed samples. The fluorescent signal of each comet was analyzed using NIH ImageJ software.
To test for other forms of DNA damage that cannot be detected by the γH2AX assay, a comet assay, which detects single strand DNA damage in addition to double strand breaks, was performed in HT-1080 cells treated under the same conditions.

cleaved caspase-3 = test: Western blot of cleaved caspase-3; conditions: for Cleaved caspase-3, added to radiation: HT-1080, 6 Gy, 24 h; for Cleavage of caspase-3, compound alone: HT-1080, IKE or RSL3 24 h, staurosporine 500 nM for 6 h
Procedure: 1 million cells were seeded in 10 cm dishes and treated with compounds and/or radiation on the next day. […] After quantification by Bradford, samples were mixed with 5×SDS loading buffer and separated by SDS-polyacrylamide gel electrophoresis. After transfer, membranes were blocked for 10 min in Tris-buffered saline (pH 7.4) with 1% Tween-20 (TBS-T) with 5% milk and incubated in primary antibody overnight at 4° C. Following 3× for 5 min washes in TBS-T, the membrane was incubated with secondary antibodies for 1 hr. The membrane was washed again in TBST 3× for 5 min prior to visualization using enhanced chemiluminescence (ECL Western Blotting Substrate, Pierce). Antibody for cleaved caspase 3 (Cell Signaling Technology, #9661) was used at 1:1000 and detected using a Peroxidase AffiniPure Goat Anti-Rabbit IgG (H+L) (Jackson ImmunoResearch, 111-295-144) at 1:5000 dilution.
DNA damage is a potent inducer of apoptosis. […] Despite this, some quantity of 17-kDa cleaved caspase-3 was still detectable in the Z-VAD-FMK-treated sample. To further check for potential radiation-induced apoptosis in this model at a later time point, we attempted to rescue the effects of radiation using 100 μM Z-VAD-FMK after 48, 72, and 96 h (FIG. 10).

[3] = tested on: lipid peroxidation in HT-1080 cells; test: Lipid ROS assay by flow cytometry (C11-BODIPY); conditions: HT-1080, 24 h, 6 Gy radiation with 1 μM IKE or 50 nM RSL3; ferrostatin-1 co-treatment
Procedure: 0.5 million cells were seeded in 10 cm dishes. The next day, they were co-treated with ferroptosis-modulating compounds and radiation and returned to the incubator. On the following day, cells were harvested in 15 ml tubes and washed twice with PBS followed by re-suspending in 500 μl of PBS containing 10 μM of BODIPY-C11 dye (Thermo Fisher Scientific, cat #D3861), and incubated at 37° C. for 30 minutes. The cells were then collected at 300× g for 5 minutes, washed with PBS three times, and subjected to the flow cytometry analysis. C6 flow cytometry system (BD Accuri cytometers) was used for the flow cytometer analysis. A minimum of 10,000 cells were analyzed per condition.
To confirm that radiation causes lipid peroxidation in these cells, lipid peroxidation was also measured with C-11 BODIPY (581/591), a membrane-targeted lipid sensor dye. […] The resulting enhancement was reversed in both cases by also co-treating the cells with ferrostatin-1.

Structure (SMILES): COC(=O)c1ccc([C@@H]2c3[nH]c4ccccc4c3C[C@@H](C(=O)OC)N2C(=O)CCl)cc1 [RSL3, Ras Synthetic Lethal 3]
- Highest observed coefficient of Drug Interaction (CDI) in combination with IR (HT-1080 cells): 0.09
- Enhancement of radiation effect on clonogenic survival (HT-1080 cells): significantly enhanced the effects of radiation
- CDI with 4 Gy IR (HT-1080 cells): 0.09
- CDI with 2 Gy IR (HT-1080 cells): 0.27
- Number of γH2AX foci [1]: did not affect the number of observed γH2AX foci
- γH2AX foci formation, compound alone [1]: did not result in γH2AX foci formation
- γH2AX foci in irradiated groups vs DMSO [1]: no differences were observed
- DNA single strand damage (percent tail DNA), compound alone [2]: not detect a significant increase
- DNA damage (percent tail DNA), combined with radiation [2]: no significant enhancement of DNA damage
- Cleaved caspase-3, added to radiation (cleaved caspase-3): did not further increase the amount of cleaved caspase-3
- Cleavage of caspase-3, compound alone (cleaved caspase-3): did not induce detectable cleavage of caspase-3
- C-11 BODIPY fluorescence [3]: significantly increased C-11 BODIPY fluorescence

Structure (SMILES): CCOC(=O)c1ccc(NC2CCCCC2)c(N)c1 [ferrostatin-1]
- Colony formation after radiation alone (HT-1080 cells; HT-1080, 2 or 4 Gy radiation, no ferroptosis inducer): significantly rescued colony formation; also recorded: partially rescued cell death induced by radiation alone
- Synergy between IKE or RSL3 and radiation in colony formation (HT-1080 cells; HT-1080, co-treatment with ferroptosis inhibitor): suppress the synergy
- Synergy between sorafenib and radiation in colony formation (HT-1080 cells; HT-1080, co-treatment with ferrostatin-1): partially suppressible
- Number of γH2AX foci [1]: did not affect the number of observed γH2AX foci
- γH2AX foci in irradiated groups vs DMSO [1]: no differences were observed
- DNA damage (percent tail DNA), combined with radiation [2]: did not observe a significant protective effect
- C-11 BODIPY fluorescence [3]: reversed

Structure (SMILES): CC(C)Oc1ccc(C(=O)Cn2ccnc2)cc1-n1c(CN2CCN(C(=O)COc3ccc(Cl)cc3)CC2)nc2ccccc2c1=O [IKE, imidazole ketone erastin]
- Highest observed coefficient of Drug Interaction (CDI) in combination with IR (HT-1080 cells): 0.17
- Enhancement of radiation effect on clonogenic survival (HT-1080 cells): significantly enhanced the effects of radiation
- CDI with 4 Gy IR (HT-1080 cells): 0.17
- CDI with 2 Gy IR (HT-1080 cells): 0.35
- Number of γH2AX foci [1]: did not affect the number of observed γH2AX foci
- γH2AX foci formation, compound alone [1]: did not result in γH2AX foci formation
- γH2AX foci in irradiated groups vs DMSO [1]: no differences were observed
- DNA single strand damage (percent tail DNA), compound alone [2]: not detect a significant increase
- DNA damage (percent tail DNA), combined with radiation [2]: no significant enhancement of DNA damage
- Cleaved caspase-3, added to radiation (cleaved caspase-3): did not further increase the amount of cleaved caspase-3
- Cleavage of caspase-3, compound alone (cleaved caspase-3): did not induce detectable cleavage of caspase-3
- C-11 BODIPY fluorescence [3]: significantly increased C-11 BODIPY fluorescence
